Measurements published in publication PMC10761647, “β-carboline derivative Z86 attenuates colorectal cancer cell proliferation and migration by directly targeting PI3K” (Natural Products and Bioprospecting, 2024).

Molecular target: T1, PI3Kα (Homo sapiens, UniProt P42336)
T1 construct: gene PIK3CA
Assay: PI3-Kinase Activity ELISA (PIP3 production) with purified PI3Kα; supported by CETSA and DARTS in HCT116 and SW480 cells/lysates
Format: biochemical

T1 sequence (P42336 whole entry): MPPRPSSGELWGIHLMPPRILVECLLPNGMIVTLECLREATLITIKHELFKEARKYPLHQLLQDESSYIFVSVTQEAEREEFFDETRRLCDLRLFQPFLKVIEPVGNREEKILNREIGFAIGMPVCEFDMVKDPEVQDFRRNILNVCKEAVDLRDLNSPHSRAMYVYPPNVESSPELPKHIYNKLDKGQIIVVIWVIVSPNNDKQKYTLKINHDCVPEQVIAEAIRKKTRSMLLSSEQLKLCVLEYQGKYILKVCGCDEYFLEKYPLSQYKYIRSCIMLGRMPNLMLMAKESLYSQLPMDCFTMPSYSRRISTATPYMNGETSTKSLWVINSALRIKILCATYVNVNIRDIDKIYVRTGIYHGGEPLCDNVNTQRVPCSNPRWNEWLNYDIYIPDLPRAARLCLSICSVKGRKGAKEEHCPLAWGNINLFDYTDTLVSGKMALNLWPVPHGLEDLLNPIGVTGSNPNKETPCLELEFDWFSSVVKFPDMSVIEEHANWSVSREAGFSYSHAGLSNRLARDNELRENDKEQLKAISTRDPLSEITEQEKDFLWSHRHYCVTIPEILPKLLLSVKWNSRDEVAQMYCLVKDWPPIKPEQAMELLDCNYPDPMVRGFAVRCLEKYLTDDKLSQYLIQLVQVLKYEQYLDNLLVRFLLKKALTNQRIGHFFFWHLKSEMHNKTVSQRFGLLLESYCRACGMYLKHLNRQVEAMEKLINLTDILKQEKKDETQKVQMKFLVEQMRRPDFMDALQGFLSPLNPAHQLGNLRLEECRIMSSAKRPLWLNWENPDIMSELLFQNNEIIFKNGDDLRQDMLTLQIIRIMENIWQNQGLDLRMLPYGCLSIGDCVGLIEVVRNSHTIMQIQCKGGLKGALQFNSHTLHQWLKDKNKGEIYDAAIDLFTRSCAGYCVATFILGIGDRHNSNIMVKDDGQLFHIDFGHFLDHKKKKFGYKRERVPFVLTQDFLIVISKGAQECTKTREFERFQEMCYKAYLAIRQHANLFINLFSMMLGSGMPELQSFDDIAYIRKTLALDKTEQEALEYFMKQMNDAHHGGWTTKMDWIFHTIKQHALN
T1 sequence (P27986 2-724 partner): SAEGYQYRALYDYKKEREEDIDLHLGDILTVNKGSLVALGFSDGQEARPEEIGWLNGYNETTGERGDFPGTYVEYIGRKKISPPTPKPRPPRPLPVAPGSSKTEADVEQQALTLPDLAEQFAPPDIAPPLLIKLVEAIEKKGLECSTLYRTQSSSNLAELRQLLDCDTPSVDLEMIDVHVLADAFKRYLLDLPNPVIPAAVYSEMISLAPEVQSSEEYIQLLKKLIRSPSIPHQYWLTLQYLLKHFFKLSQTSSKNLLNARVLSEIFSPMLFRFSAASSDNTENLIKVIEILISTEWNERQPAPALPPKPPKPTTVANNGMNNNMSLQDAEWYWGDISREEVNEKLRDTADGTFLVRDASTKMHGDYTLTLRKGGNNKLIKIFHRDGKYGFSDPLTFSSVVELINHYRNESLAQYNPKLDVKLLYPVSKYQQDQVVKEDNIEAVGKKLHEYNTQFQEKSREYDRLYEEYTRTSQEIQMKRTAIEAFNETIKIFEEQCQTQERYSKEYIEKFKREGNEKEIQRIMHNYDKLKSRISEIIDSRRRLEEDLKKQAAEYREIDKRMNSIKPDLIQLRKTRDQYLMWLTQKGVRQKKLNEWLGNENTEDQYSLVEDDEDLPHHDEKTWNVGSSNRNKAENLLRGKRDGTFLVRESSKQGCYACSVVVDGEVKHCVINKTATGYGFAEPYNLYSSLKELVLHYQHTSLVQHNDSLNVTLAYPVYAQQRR

`CCn1c2ccccc2c2cc(C(=O)OC(C)C)nc(-c3cccc4ccccc34)c21` [Z86, isopropyl 9-ethyl-1-(naphthalen-1-yl)-9 H-pyrido[3,4-b] indole-3-carboxylate] showed an IC50 of 4.28 µM.
